Active and inactive are the calls of the source.
Experiments:
cells [1] = assay: cells
Major prion protein = Major prion protein (Homo sapiens, UniProt P04156); assay type: functional, cell-based
[2] = target: T1, Short transient receptor potential channel 4 (Mus musculus, UniProt Q9QUQ5); assay: calcium entry via TRPC4 opening agents – cell-based, HEK293 TRPC4/mu-opioid, Fluo-4 calcium, dose response (AID 434937); assay type: functional
T1 sequence (Q9QUQ5 whole entry): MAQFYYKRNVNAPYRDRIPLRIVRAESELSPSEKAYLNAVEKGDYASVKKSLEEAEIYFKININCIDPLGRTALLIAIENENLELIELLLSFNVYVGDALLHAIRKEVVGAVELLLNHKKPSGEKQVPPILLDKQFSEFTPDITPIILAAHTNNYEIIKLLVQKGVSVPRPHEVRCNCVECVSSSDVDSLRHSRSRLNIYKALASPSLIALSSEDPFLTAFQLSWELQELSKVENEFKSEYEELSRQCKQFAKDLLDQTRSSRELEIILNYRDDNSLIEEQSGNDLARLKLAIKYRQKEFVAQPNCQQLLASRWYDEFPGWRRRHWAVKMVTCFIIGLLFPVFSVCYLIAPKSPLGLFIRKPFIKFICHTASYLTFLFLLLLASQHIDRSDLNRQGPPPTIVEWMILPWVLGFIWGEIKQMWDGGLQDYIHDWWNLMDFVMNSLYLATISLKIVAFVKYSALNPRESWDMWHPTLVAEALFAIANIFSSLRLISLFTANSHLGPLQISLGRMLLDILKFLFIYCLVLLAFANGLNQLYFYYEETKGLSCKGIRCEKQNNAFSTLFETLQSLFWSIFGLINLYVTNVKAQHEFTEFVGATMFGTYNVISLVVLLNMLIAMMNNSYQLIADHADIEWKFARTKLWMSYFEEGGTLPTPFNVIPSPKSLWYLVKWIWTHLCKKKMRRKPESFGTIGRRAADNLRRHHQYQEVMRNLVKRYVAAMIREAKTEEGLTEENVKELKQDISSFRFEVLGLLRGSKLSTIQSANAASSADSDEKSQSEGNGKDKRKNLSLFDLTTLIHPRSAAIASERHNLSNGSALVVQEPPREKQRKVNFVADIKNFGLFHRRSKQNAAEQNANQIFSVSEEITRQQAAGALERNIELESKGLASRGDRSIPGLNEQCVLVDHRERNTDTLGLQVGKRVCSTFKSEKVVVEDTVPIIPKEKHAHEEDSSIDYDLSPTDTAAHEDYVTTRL

Mu-type opioid receptor = Mu-type opioid receptor (Homo sapiens, UniProt P35372); assay: (§1) Counterscreen for agonists of heterodimerization of the mu 1 (OPRM1) and delta 1 (OPRD1) opioid receptors: Luminescence-based cell-based high throughput dose response assay to identify agonists of OPRM1 homodimerization.; assay type: functional
[3] = target: Delta-type opioid receptor (Homo sapiens, UniProt P41143); assay: as §1, with “of OPRD1” for “of OPRM1”, “homodimerization. [Related pubchem assays (depositor defined):AID504326, AID504355, AID504692, AID504904, AID504905]” for “homodimerization.”; assay type: functional
[4] = target: 5-hydroxytryptamine receptor 5A (Homo sapiens, UniProt P47898); assay: Counterscreen for agonists of OPRM1-OPRD1 heterodimerization: luminescence-based cell-based high throughput dose response assay to identify agonists of 5-hydroxytryptamine (serotonin) 5A receptor (HTR5A). [Related pubchem assays (depositor defined):AID504326, AID504355, AID504692, AID504904, AID504905]; assay type: functional
[5] = blockers of HIV-1 ZM109 envelope-driven cell-cell fusion – HeLa effector, CEM target cells, luciferase, cherry-pick, dose response (AID 652058); assay type: functional, cell-based;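 further: luciferase signal from HIV-1 Env mediated cell-cell fusion of effector and target cells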
[6] = off-target signal loss in HeLa-CEM21 co-culture – HeLa F-luc CTL cells, cherry-picked, counter-screen for HIV-1 Env fusion inhibitor project, dose response (AID 652040); assay type: functional, cell-based;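 further: potency for signal decrease marking cytotoxic or nonspecific inhibition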
[7] = blockers of HIV-1 envelope-mediated cell-cell fusion – cherry-pick, dose response (AID 652057); assay type: functional, cell-based
[8] = viability loss in CEM21 cells – cell-based, CellTiter-Glo luminescence, cherry-picked, cytotoxicity control for viral fusion inhibitor project, dose response (AID 652042); assay type: functional;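 further: potency for signal decrease meaning cytotoxicity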
Galanin receptor type 3 = target: T2, Galanin receptor type 3 (Homo sapiens, UniProt O60755); assay: Fluorescence-based cell-based primary high throughput dose response assay to identify antagonists of the Galanin Receptor 3 (GalR3).; assay type: functional
T2 sequence (O60755 whole entry): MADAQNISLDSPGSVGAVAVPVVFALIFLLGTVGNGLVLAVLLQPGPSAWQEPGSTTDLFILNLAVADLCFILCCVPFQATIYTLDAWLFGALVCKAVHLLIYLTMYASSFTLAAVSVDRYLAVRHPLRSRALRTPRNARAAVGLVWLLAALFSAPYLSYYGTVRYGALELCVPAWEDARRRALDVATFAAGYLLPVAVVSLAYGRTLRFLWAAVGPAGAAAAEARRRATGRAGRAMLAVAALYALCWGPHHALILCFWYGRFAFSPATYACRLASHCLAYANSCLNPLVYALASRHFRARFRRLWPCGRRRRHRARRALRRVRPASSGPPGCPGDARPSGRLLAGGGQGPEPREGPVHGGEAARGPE

cells [9] = assay type: functional, cell-based; settings: HEK-CNG
[10] = nonselective StAR promoter luciferase inhibitors – cell-based, luminescence, luciferase reporter, counter-screen for LRH-1 inverse agonist project, dose response (AID 651969); assay type: functional
Steroidogenic factor 1 = Steroidogenic factor 1 (Homo sapiens, UniProt Q13285); assay: Counterscreen for inverse agonists of the liver receptor homolog-1 (LRH-1; NR5A2): Luminescence-based cell-based high throughput dose response assay to identify inverse agonists of the Steroidogenic Factor 1 Nuclear Receptor (SF1; NR5A1).; assay type: functional
[11] = target: Nuclear receptor subfamily 5 group A member 2 (Homo sapiens, UniProt O00482); assay type: functional, cell-based;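 further: HEK293T cells transfected with LRH-1 and a StAR promoter luciferase reporter; potency for inhibitors that lower LRH-1 driven reporter light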
Beta-galactosidase = Beta-galactosidase (Escherichia coli, UniProt Q8VNN2); assay: PubChem AID 485352; assay type: functional
[12] = target: T3, Type-1 angiotensin II receptor (Homo sapiens, UniProt P30556); assay: antagonism of angiotensin II type 1 receptor – cell-based, uHTS hits, selectivity assay for APJ receptor antagonist project, dose response (AID 463214); assay type: functional;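 further: antagonist potency against angiotensin II stimulated AT1 response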
T3 sequence (P30556 whole entry): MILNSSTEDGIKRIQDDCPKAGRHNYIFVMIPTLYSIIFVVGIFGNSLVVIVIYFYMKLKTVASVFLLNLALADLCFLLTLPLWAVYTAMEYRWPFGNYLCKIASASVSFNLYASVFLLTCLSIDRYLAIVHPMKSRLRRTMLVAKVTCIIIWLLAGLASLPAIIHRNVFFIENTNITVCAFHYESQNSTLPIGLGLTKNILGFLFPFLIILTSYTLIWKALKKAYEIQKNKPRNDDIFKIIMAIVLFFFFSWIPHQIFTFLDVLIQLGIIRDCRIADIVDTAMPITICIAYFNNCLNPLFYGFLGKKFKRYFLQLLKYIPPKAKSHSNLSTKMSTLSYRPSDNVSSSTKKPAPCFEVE

[13] = microbe, parasite or virus in culture; assay type: functional; settings: Mycobacterium tuberculosis
[14] = NIH3T3 cell viability loss – ATP luminescence, mouse fibroblasts, counter-screen, dose response (AID 2010); assay type: functional, cell-based;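 further: cells exposed to compound for about 90 hours before reading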
[15] = Trypanosoma cruzi growth suppression in host cells – NIH3T3 host cells, beta-gal luminescence, confirmation (AID 2044); assay type: functional, cell-based;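 further: intracellular parasites grown in NIH/3T3 mouse fibroblasts as host cells; luminescent beta-galactosidase reporter signal from transgenic T. cruzi replicating inside host cells; inhibitors lower the luminescence signal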

## CCc1cc2cccc(C)c2nc1SCC(=O)NNC(=O)c1ccco1
Cells [1]
  IC50: > 138 µM (inactive)
Major prion protein
  IC50: 3.73 µM (active)

## Cc1ccc2c(C)c(C(=O)N(Cc3cccs3)C3CCS(=O)(=O)C3)oc2c1 (stereo unspecified)
[2]
  EC50: 2.66 µM (active)
Mu-type opioid receptor
  EC50: > 92.5 µM (inactive)
[3]
  EC50: 63.6 µM (inactive)
[4]
  EC50: > 92.5 µM (inactive)

## Cc1ccc(S(=O)(=O)N(C)C)cc1NC(=O)C(C)N(C)CCOc1ccc(Cl)cc1 (stereo unspecified)
[5]
  AC50: 1.85 µM (active)
[6]
  AC50: 39.3 µM (active)
[7]
  AC50: 18.7 µM (active)
[8]
  AC50: 57 µM (active)

## CCOC(=O)Cc1csc(NC(=O)c2cc(=O)c3ccccc3o2)n1
Galanin receptor type 3
  IC50: 3.82 µM (active)
Cells [9]
  EC50: > 29.9 µM (inactive)

## Cc1ccc(NC(=O)COC(=O)C(NS(=O)(=O)c2ccc(Cl)cc2)C(C)O)c(Br)c1 (stereo unspecified)
[10]
  IC50: 35.9 µM (inactive)
Steroidogenic factor 1
  IC50: 1.33 µM (active)
[11]
  IC50: 35.9 µM (inactive)

## CCCc1cc(=O)oc2c(C)c(OCC(=O)NC3CC(C)(C)NC(C)(C)C3)ccc12
[10]
  IC50: 35.9 µM (inactive)
Steroidogenic factor 1
  IC50: 0.443 µM (active)
[11]
  IC50: 35.9 µM (inactive)

## Cc1cc(C)nc(NS(=O)(=O)c2ccc(NC(=O)CSc3nc(O)c(C#N)c(-c4ccccc4)n3)cc2)n1
Cells [1]
  IC50: > 138 µM (inactive)
Major prion protein
  IC50: 6.28 µM (active)

## O=C(Cn1nnc2ccccc21)OCC(=O)c1ccc(Cl)c(Cl)c1
Beta-galactosidase
  EC50: > 40 µM (inactive)
[12]
  IC50: 13.3 µM (active)

## COCCN(C(=O)C1CC(=O)N(Cc2ccccc2)C1)c1nc(-c2ccc([N+](=O)[O-])cc2)cs1 (stereo unspecified)
Mu-type opioid receptor
  EC50: 22.9 µM (inactive)
[13]
  CC50: > 40 µM (active)
[3]
  EC50: > 92.5 µM (inactive)
[4]
  EC50: > 92.5 µM (inactive)

## Cc1cc(C)c2sc(NC(=O)c3ccc([N+](=O)[O-])o3)nc2c1
[10]
  IC50: 35.8 µM (inactive)
[14]
  EC50: > 60 µM (not active)
[15]
  EC50: 0.642 µM (active)
Steroidogenic factor 1
  IC50: 1.89 µM (active)
[11]
  IC50: 35.8 µM (inactive)

## CC1SC(C)C(=O)N(CC(=O)Nc2ccc3c(c2)OCO3)C1=O (stereo unspecified)
[10]
  IC50: 35.9 µM (inactive)
Steroidogenic factor 1
  IC50: 35.9 µM (inactive)
[11]
  IC50: 35.9 µM (inactive)

## COc1ccc(S(=O)(=O)NNc2nc(C)cc(C)n2)cc1[N+](=O)[O-]
Beta-galactosidase
  EC50: > 40 µM (inactive)
[12]
  IC50: 36.7 µM (not active)
